According to patent publication US4322540A, “Substituted 4,5,6,7-tetrahydro-1H (or 2H)-indazoles” (Eli Lilly and Company, priority 1981, dated 1982):
Where a name gives a salt, the structure may show the parent alone.

Columns and labels:
[1] = tested on: nigro-neostriatal-lesioned rats; assay: Turning behavior in 6-hydroxy-dopamine-lesioned rats (dopamine agonist activity); type: in vivo, rat; conditions: intraperitoneal; for Percent of rats exhibiting turning behavior: 15-minute period after latency; for Number of turns (average): counted over 15-minute period
Method: In this test, nigro-neostriatal-lesioned rats, prepared by the procedure of Ungerstedt and Arbuthnott, Brain Res, 24, 485 (1970) are employed. A compound having dopamine agonist activity, upon injection, causes the rats to turn in circles contralateral to the side of the lesion. After a latency period, which varies from compound to compound, the number of turns is counted over a 15-minute period. The compounds are dissolved in water and the resulting aqueous solution injected into the rat by the intraperitioneal route at a series of dose levels.

[2] = tested on: prolactin; assay: Inhibition of prolactin secretion in reserpine-treated rats; type: in vivo, adult male rats of the Sprague-Dawley strain; conditions: intraperitoneal, serum one hour after treatment, reserpine-treated male rats
Method: The compounds of this invention are also useful as prolactin inhibitors and as such can be employed in the treatment of inappropriate lactation, such as postpartum lactation and galactorrhea.
Adult male rats of the Sprague-Dawley strain weighing about 200 g. were housed in an air-conditioned room with controlled lighting (lights on 6 a.m.-8 p.m.) and fed lab chow and water ad libitum. Each rat received an intraperitioneal injection of 2.0 mg. of reserpine in aqueous suspension 18 hours before administration of the indazole. The purpose of the reserpine was to keep prolactin levels uniformly elevated. The compounds under test were dissolved in water and were injected intraperitioneally at doses ranging from 5 mg/kg down to […]. Each compound was administered at each dose level to a group of 10 rats, and a control group of 10 intact males received an equivalent amount of solvent. One hour after treatment all rats were killed by decapitation, and 150 μl aliquots of serum were assayed for prolactin.
The difference between the prolactin level of the treated rats and prolactin level of the control rats divided by the prolactin level of the control rats gives the percent inhibition of prolactin secretion attributable to the compounds of this invention. In the table, column 1 gives the name of the compound; and columns 2-4 the percent prolactin inhibition at the given dose level.

[3] = tested on: mouse; assay: Acute toxicity (LD50) by the intraperitoneal route in the mouse; type: in vivo
Method: In using the compounds of this invention to inhibit prolactin secretion or to treat Parkinson's syndrome or for other pharmacologic action, a compound according to Formulas I and II above, or a salt thereof with a pharmaceutically-acceptable acid, is administered to a subject suffering from Parkinsonism, or in need of having their prolactin level reduced, in an amount effective to alleviate some of the symptoms of Parkinsonism or to reduce an elevated prolactin level. Oral administration is preferred. If parenteral administration is used, the injection is preferably by the subcutaneous route using an appropriate pharmaceutical formulation. […] In particular, with intravenous or intramuscular administration, a water soluble pharmaceutically-acceptable salt is employed. For oral administration, a compound according to Formulas I and II either as the free base or in the form of a salt thereof can also be mixed with standard pharmaceutical excipients and loaded into empty telescoping gelatin capsules or pressed into tablets. The oral dosage should be in the range 0.01-10 mg/kg of mammalian body weight and the parenteral dose in the range 0.0025 to 2.5 mg/kg. The LD50 of dl-5-di(n-propyl)amino-4,5,6,7-tetrahydro-1H(and 2H)-indazole dihydrochloride is between 100 and 300 mg/kg by the intraperitoneal route in the mouse.

SMILES | Percent of rats exhibiting turning behavior ([1]; 1 mg/kg) [%] | Number of turns (average) ([1]; 1 mg/kg) [turns] | Percent Inhibition of Prolactin ([2]; 5 mg/kg) [%] | Percent Inhibition of Prolactin ([2]; 50 mcg/kg) [%] | Percent Inhibition of Prolactin ([2]; 500 mcg/kg) [%] | Percent of rats exhibiting turning behavior ([1]; 100 mcg/kg) [%] | Number of turns (average) ([1]; 100 mcg/kg) [turns] | Lethality ([3]; 10 mg/kg) | Lethality ([3]; 30 mg/kg) | Side effects ([3]; 30 mg/kg) | Percent of rats exhibiting turning behavior ([1]; 250 mcg/kg) [%] | Number of turns (average) ([1]; 250 mcg/kg) [turns]
NC1CCc2[nH]ncc2C1 (racemic) [dl-5-Amino-4,5,6,7-tetrahydro-1H-indazole dihydrochloride and dl-5-amino-4,5,6,7-tetrahydro-2H-indazole dihydrochloride] | 33 | 7 |  |  |  |  |  |  |  |  |  | 
CN(C)C1CCc2[nH]ncc2C1 (racemic) [dl-5-Dimethylamino-4,5,6,7-tetrahydro-1H-indazole dihydrochloride and dl-5-dimethylamino-4,5,6,7-tetrahydro-2H-indazole dihydrochloride] | 33 | 5 | 73 | 31 | 30 |  |  |  |  |  |  | 
CCCN(CCC)C1CCc2n[nH]cc2C1 (racemic) [dl-5-di(n-propyl)amino-4,5,6,7-tetrahydro-1H(and 2H)-indazole dihydrochloride] | 67 | 48 | 94 | 1 | 66 | 33 | 6 | not fatal | not fatal | produces some undesirable side effects |  | 
CCCN(CCC)C1CCc2cn[nH]c2C1 (racemic) [dl-6-di-(n-propyl)amino-4,5,6,7-tetrahydro-1H(and 2H)-indazole dihydrochloride] | 100 | 98 |  | 31 |  | 0 |  |  |  |  | 50 | 30
